Laboratory results: publication PMC6825211 (Nature Communications, 2019)

Tests used:
[1] = tested on: mouse model of liver and intestine injury; parameters: method as in PMID 27535619; details: cited from earlier work
[2] = tested on: MST1–LATS2 signaling; experiment: Western blot of YAP-S127 phosphorylation (MST1/LATS2 overexpression); details: 10 μM, last 24 h
[3] = target: T1, MST1 (Rattus norvegicus, UniProt A0A8I6A0F8); experiment: CETSA assay; type: cell-based; details: 5 μM, 2 h, INS-1E, 55 °C
T1 construct: endogenous in cells; host or cells: INS-1E (rat beta-cell line)
T1 sequence (A0A8I6A0F8 1-487): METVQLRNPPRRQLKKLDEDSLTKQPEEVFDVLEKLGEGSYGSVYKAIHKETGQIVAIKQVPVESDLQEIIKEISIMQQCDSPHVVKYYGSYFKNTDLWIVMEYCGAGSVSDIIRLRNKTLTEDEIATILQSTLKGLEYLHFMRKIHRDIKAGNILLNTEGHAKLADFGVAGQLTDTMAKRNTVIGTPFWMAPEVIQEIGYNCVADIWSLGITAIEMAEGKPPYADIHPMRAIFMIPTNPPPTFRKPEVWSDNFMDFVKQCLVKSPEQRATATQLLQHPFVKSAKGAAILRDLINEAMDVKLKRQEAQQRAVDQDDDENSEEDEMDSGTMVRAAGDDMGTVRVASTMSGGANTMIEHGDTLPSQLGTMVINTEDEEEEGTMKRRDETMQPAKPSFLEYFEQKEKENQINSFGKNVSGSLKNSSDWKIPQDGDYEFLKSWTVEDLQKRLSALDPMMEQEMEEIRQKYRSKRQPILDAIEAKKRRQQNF
Procedure: Thereafter, cells were pelleted at 200 g for 4 min and resuspended in PBS supplemented with phosphatase and protease inhibitor cocktail at the cell density of 3 Mill./100 µl. Each cell suspension was distributed into five 0.2-ml PCR tubes with 100 µl of cell suspension per tube. PCR tubes were heated at their designated temperature (43–55 °C) on a thermal cycler for 3 min, incubated at room temperature for 3 min, and snap-frozen in liquid nitrogen. Cell lysates were prepared by freezing–thawing the samples in liquid nitrogen twice, and soluble MST1 was detected by western blot analysis.

[4] = target: T2, MST1 (Homo sapiens, UniProt Q13043); experiment: Biochemical kinase dose response (Suppl. Fig. 5); details: concentrations up to 10 μM
T2 sequence (Q13043 1-487): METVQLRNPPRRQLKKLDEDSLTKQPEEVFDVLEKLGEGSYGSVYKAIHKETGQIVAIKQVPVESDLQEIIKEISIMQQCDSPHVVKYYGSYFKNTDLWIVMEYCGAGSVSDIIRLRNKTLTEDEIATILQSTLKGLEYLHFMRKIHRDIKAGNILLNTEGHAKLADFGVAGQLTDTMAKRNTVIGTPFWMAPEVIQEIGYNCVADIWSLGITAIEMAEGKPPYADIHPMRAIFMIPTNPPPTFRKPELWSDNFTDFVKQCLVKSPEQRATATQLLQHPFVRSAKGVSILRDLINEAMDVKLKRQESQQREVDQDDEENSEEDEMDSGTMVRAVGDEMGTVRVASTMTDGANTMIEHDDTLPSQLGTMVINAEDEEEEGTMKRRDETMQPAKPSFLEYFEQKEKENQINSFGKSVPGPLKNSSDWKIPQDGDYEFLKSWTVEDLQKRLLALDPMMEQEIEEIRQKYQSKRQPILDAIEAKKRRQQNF

[5] = tested on: MST family members; parameters: method as in PMID 22037378; details: cited from earlier work
[6] = tested on: MST1–LATS2 signaling; experiment: LATS-BS in vitro luciferase assay (MST1/LATS2 overexpression)
Description: Therefore a LATS-BS construct has been generated with fusion of YAP fragment and 14-3-3 with N-terminal and C-terminal firefly luciferase fragments (N-luc and C-luc), respectively that assesses LATS kinase activity by measuring the interaction between pS127-YAP and 14-3-3[35] in a MST1–LATS2-phosphorylation-dependent manner (Fig. 4a).
As internal transfection control, pRL-Renilla luciferase control reporter vector (Promega) was co-transfected into each sample. […] Luciferase signal was calculated based on the ratio of luciferase activity of LATS-BS to control reporter vector.

[7] = target: MST2 (Homo sapiens, UniProt Q13188); experiment: Biochemical kinase dose response (Suppl. Fig. 2, 5); details: concentrations up to 10 μM
Chain of MST2 (Q13188 whole entry, species assumed): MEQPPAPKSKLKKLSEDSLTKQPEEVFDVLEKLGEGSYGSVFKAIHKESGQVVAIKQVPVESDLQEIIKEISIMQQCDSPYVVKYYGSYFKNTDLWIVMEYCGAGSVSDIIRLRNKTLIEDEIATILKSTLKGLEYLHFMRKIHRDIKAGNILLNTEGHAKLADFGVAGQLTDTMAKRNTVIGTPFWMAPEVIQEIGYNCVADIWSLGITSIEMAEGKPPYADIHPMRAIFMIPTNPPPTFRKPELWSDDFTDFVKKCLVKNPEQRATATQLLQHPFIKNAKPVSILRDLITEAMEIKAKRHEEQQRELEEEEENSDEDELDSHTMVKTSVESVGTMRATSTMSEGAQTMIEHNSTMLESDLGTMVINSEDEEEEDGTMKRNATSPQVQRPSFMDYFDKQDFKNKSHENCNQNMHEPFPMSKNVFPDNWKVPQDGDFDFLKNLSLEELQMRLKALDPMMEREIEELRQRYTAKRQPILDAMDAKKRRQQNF

[8] = tested on: INS-1E cells; experiment: Western blot of pMST1, caspase-3/PARP cleavage, PDX1, BIM under diabetogenic conditions; type: cell-based, rat; details: 10 μM, 24 h
Procedure: . pThr183), caspase-3 and PARP cleavage, PDX1, tubulin, and actin were analyzed by western blotting. Representative Western blots and pooled quantitative densitometry analysis are shown from three independent cell line experiments (n = 3). […]; all by Student’s t tests.
. pThr183), caspase-3 and PARP cleavage, and BIM and actin were analyzed by western blotting. Representative Western blots (b) and pooled quantitative densitometry analysis (c) are shown from 3–6 independent culture dishes (n = 3–6). […]; all by Student’s t tests.
Human islets were isolated from eight pancreases of nondiabetic organ donors at PRODO Labs and at Lille University and cultured on extracellular matrix-coated dishes (Novamed, Jerusalem, Israel)[62] or on Biocoat Collagen I coated dishes (#356400, Corning, ME, USA). […] The clonal rat β-cell line INS-1E was kindly provided by Dr. Claes Wollheim, Geneva & Lund University. Human islets were cultured in complete CMRL-1066 (Invitrogen) medium at 5.5 mM glucose, mouse islets and INS-1E cells at complete RPMI-1640 medium at 11.1 mM glucose. […] . Palmitic acid (Sigma) was dissolved at 10 mmol/l in RPMI-1640 medium containing 11% fatty acid–free bovine serum albumin (BSA) (Sigma) under an N2-atmosphere and added to the culture at 0.5 mM[64]. […] . Isolated human islets or INS-1E cells were infected with adenovirus carrying LacZ as control or MST1 or LATS2 (all Vector Biolabs), at a multiplicity of infection of 100 (human islets) or 20 (INS-1E) for 4 h[11]. Adenovirus was subsequently washed off with PBS and replaced by fresh medium with 10% FBS and the respective analysis performed after 48 h post infection.

[9] = target: T2, MST1; experiment: LanthaScreen Eu kinase binding assay (HTS and dose response); parameters: purchased ThermoFisher; details: 1 μM; positive control
Procedure: A total of 39 hits were selected for 9-point dose response confirmation in triplicate, starting at 1 μM followed by 1:5 serial dilution.
Compounds in 1000× DMSO stock solution were dispensed by using Echo555 liquid dispensing system (Labcyte, CA) to 1536-well microplate (Corning, NY). Kinase buffer A (ThermoFisher, MA) was prepared and added to each well. […] Each reagent was added to the microplate in equal volume.

## CN1C(=O)c2sccc2N(C)c2nc(Nc3ccc(S(N)(=O)=O)cc3)ncc21 [XMU-MP-1]
[1]
  effect in mouse model of liver and intestine injury: promotes tissue repair and regeneration

## C=CC(=O)Nc1cc2c(Nc3ccc(F)c(Cl)c3)ncnc2cc1OCCCN1CCOCC1 [canertinib]
[2]
  MST1/LATS2-induced YAP-S127 phosphorylation: had no inhibitory effect
[3]
  thermal stabilization of MST1 in intact cells: degradation occurred at the same condition
[4]
  inhibition of MST1: no appreciable inhibition
[5]
  activity on MST family members: without MST family inhibitory activity
[6]; 10 μM, last 24 h
  MST1/LATS2-induced luciferase activity (LATS-BS): had no inhibitory effect
[6]; L2/Mst1 overexpression + 10 μM compound, mean of six dishes
  Firefly/Renilla x1000 (MEAN): 27.5257
[7]
  inhibition of MST2: no appreciable inhibition
[8]
  cleaved caspase-3, cleaved PARP, and BIM under basal conditions: significant stimulatory effect
[8]; HG/Pal
  mitochondrial BIM induction under diabetic conditions: but not the EGFR inhibitor canertinib significantly reduced
  stress-induced MST1 activation and caspase-3 and PARP cleavage: ineffective

## CN[C@@H]1C[C@H]2O[C@@](C)([C@@H]1OC)n1c3ccccc3c3c4c(c5c6ccccc6n2c5c31)C(=O)NC4 [staurosporine]
[9]
  inhibition at 1 µM: 100%
